Data taken from patent US20250326708A1, “LONG-ACTING SPLEEN-TARGETING CATIONIC LIPID COMPOUND COMPRISING BENZENE RING STRUCTURE, COMPOSITION COMPRISING SAME, AND USE THEREOF” (Beijing Youcarekechuang Pharmaceutical Technology Co., Ltd., priority 2024, published 2025).

Legend:
[1] = Particle size and polydispersity index (PDI) of lipid nanoparticles, dynamic light scattering; format: physicochemical; conditions: LNP preparation with the named cationic lipid; 90° scattering angle, 25° C
Procedure, shortened: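 LNPs of cationic lipid:DSPC:cholesterol:DMG-PEG2000 (49:10:39.5:1.5 molar) encapsulating eGFP or Fluc mRNA at 15:1 lipid:mRNA weight ratio, made by ethanol injection into citrate buffer pH 4–5, sonication, and ultrafiltration into PBS. Size and PDI by DLS at 90° and 25° C after dilution in water, three measurements per sample.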

[2] = tested on: female BALB/C mice; assay: Distribution of delivered small nucleic acid drug (Cy5 fluorescently labeled Leqvio) in different organs of mice; format: in vivo
Method: LNP preparations containing 5 μg of Cy5 fluorescently labeled Leqvio were injected via the tail vein into female BALB/C mice (4 to 6 weeks old, weighing 17 to 19 g). At a specific time point after administration (4 h), the average radiation intensity (corresponding to fluorescence intensity) resulting from the Cy5 fluorescently labeled Leqvio delivered by the LNP preparations in the mice in vivo was detected using the IVIS Spectrum small-animal in vivo imaging system. After sampling, the mice were killed by cervical dislocation and dissected, and the internal organs: heart, liver, spleen, lung, kidney, and lymph of mice were accurately isolated. The average radiation intensity (corresponding to fluorescence intensity) resulting from Cy5 fluorescently labeled Leqvio delivered by the LNP preparations in various organs of mice was then detected using the IVIS Spectrum small-animal in vivo imaging system.

[3] = 4 hours after 5 μg Cy5 fluorescently labeled Leqvio via tail vein

Question: Which PDI [1] does the source give for CCCCCCCCCCCOC(=O)CCCN(CCCCCCC(=O)OCCC(CCCCCC)CCCCCC)CCNC(CO)(CO)CCc1ccc(CCCCCCCC)cc1 [YK-910, 3-hexylnonyl 7-((2-((1-hydroxy-2-(hydroxymethyl)-4-(4-octylphenyl)butan-2-yl)amino)ethyl) (4-oxo-4-(undecyloxy)butyl)amino) heptanoate] here?
Answer: 10.3%

Question: And the Particle size [1]?
Answer: 126 nm

Question: What about the “Average radiation intensity of mouse organs: Heart” value [2, 3] of the same molecule?
Answer: 0

Question: And the “Average radiation intensity of mouse organs: Kidney” value [2, 3]?
Answer: 53243

Question: And the “Average radiation intensity of mouse organs: Liver” value [2, 3]?
Answer: 33583

Question: What about the “Average radiation intensity of mouse organs: Lung” value [2, 3] of the same molecule?
Answer: 0

Question: What about the “Average radiation intensity of mouse organs: Lymph” value [2, 3] of the same molecule?
Answer: 0

Question: What about the “Average radiation intensity of mouse organs: Spleen” value [2, 3] of the same molecule?
Answer: 63583

Question: And the “Fluorescence intensity in the spleen, times that of SM-102” value ([2]; Cy5 Leqvio, spleen, 4 h, vs SM-102)?
Answer: 51.19 times

Question: And the “Fluorescence intensity in the spleen, times that of YK-501” value ([2]; Cy5 Leqvio, spleen, 4 h, vs YK-501)?
Answer: 11.91 times

Question: What about the “Fluorescence intensity in the spleen, times that of YK-506” value ([2]; Cy5 Leqvio, spleen, 4 h, vs YK-506) of the same molecule?
Answer: 2.85 times

Question: And the “Fluorescence intensity in the spleen, times that of direct administration” value ([2]; Cy5 Leqvio, spleen, 4 h, vs direct administration)?
Answer: 150.67 times
